± gives the expanded uncertainty stated by the source.
Test: mn = molality of the nth substance listed, in mol/kg
Conditions: 101 kPa, Liquid; for viscosity: Capillary tube (Ostwald / Ubbelohde) method; for mass density: Vibrating tube method

In the case of `Cc1ncc(CO)c(CO)c1O.Cl` [5-hydroxy-6-methyl-3,4-pyridinedimethanol hydrochloride] + O, the viscosity (288.15 K, m1 = 0.0202) is reported as 1.145 ± 0.022 mPa·s, the viscosity (288.15 K, m1 = 0.0365) is reported as 1.151 ± 0.022 mPa·s and the viscosity (288.15 K, m1 = 0.0529) is reported as 1.157 ± 0.022 mPa·s. The viscosity (288.15 K, m1 = 0.0695) was 1.163 ± 0.022 mPa·s, the viscosity (288.15 K, m1 = 0.0863) was 1.169 ± 0.022 mPa·s and the viscosity (288.15 K, m1 = 0.1032) was 1.175 ± 0.022 mPa·s. The mass density (288.15 K, m1 = 0.0202) was 1000.32 ± 1.1 kg/m3, the mass density (288.15 K, m1 = 0.0365) was 1001.26 ± 1.1 kg/m3 and the mass density (288.15 K, m1 = 0.0529) was 1002.19 ± 1.1 kg/m3. The mass density (288.15 K, m1 = 0.0695) was 1003.11 ± 1.1 kg/m3, the mass density (288.15 K, m1 = 0.0863) was 1003.98 ± 1.1 kg/m3 and the mass density (288.15 K, m1 = 0.1032) was 1004.86 ± 1.1 kg/m3. It also gave a viscosity (298.15 K, m1 = 0.0202) of 0.8984 ± 0.021 mPa·s, a viscosity (298.15 K, m1 = 0.0365) of 0.9043 ± 0.021 mPa·s and a viscosity (298.15 K, m1 = 0.0529) of 0.9103 ± 0.021 mPa·s. The viscosity (298.15 K, m1 = 0.0695) was 0.9163 ± 0.021 mPa·s, the viscosity (298.15 K, m1 = 0.0863) was 0.9224 ± 0.022 mPa·s and the viscosity (298.15 K, m1 = 0.1032) was 0.9286 ± 0.022 mPa·s. It also gave a mass density (298.15 K, m1 = 0.0202) of 998.28 ± 1.1 kg/m3, a mass density (298.15 K, m1 = 0.0365) of 999.22 ± 1.1 kg/m3 and a mass density (298.15 K, m1 = 0.0529) of 1000.15 ± 1.1 kg/m3. For the same compound, the mass density (298.15 K, m1 = 0.0695) was 1001.07 ± 1.1 kg/m3, the mass density (298.15 K, m1 = 0.0863) was 1001.99 ± 1.1 kg/m3 and the mass density (298.15 K, m1 = 0.1032) was 1002.9 ± 1.1 kg/m3. For the same compound, the viscosity (308.15 K, m1 = 0.0202) was 0.7266 ± 0.021 mPa·s, the viscosity (308.15 K, m1 = 0.0365) was 0.7312 ± 0.021 mPa·s and the viscosity (308.15 K, m1 = 0.0529) was 0.7358 ± 0.021 mPa·s. For the same compound, the viscosity (308.15 K, m1 = 0.0695) was 0.7404 ± 0.021 mPa·s, the viscosity (308.15 K, m1 = 0.0863) was 0.7451 ± 0.021 mPa·s and the viscosity (308.15 K, m1 = 0.1032) was 0.7498 ± 0.021 mPa·s. For the same compound, the mass density (308.15 K, m1 = 0.0202) was 995.25 ± 1.1 kg/m3, the mass density (308.15 K, m1 = 0.0365) was 996.18 ± 1.1 kg/m3 and the mass density (308.15 K, m1 = 0.0529) was 997.09 ± 1.1 kg/m3. The mass density (308.15 K, m1 = 0.0695) was 997.99 ± 1.1 kg/m3, the mass density (308.15 K, m1 = 0.0863) was 998.89 ± 1.1 kg/m3 and the mass density (308.15 K, m1 = 0.1032) was 999.78 ± 1.1 kg/m3. For the same compound, the viscosity (318.15 K, m1 = 0.0202) was 0.6009 ± 0.021 mPa·s, the viscosity (318.15 K, m1 = 0.0365) was 0.6048 ± 0.021 mPa·s and the viscosity (318.15 K, m1 = 0.0529) was 0.6087 ± 0.021 mPa·s. For the same compound, the viscosity (318.15 K, m1 = 0.0695) was 0.6127 ± 0.021 mPa·s, the viscosity (318.15 K, m1 = 0.0863) was 0.6168 ± 0.021 mPa·s and the viscosity (318.15 K, m1 = 0.1032) was 0.6209 ± 0.021 mPa·s. It also gave a mass density (318.15 K, m1 = 0.0202) of 991.43 ± 1.1 kg/m3, a mass density (318.15 K, m1 = 0.0365) of 992.35 ± 1.1 kg/m3 and a mass density (318.15 K, m1 = 0.0529) of 993.26 ± 1.1 kg/m3. It also gave a mass density (318.15 K, m1 = 0.0695) of 994.16 ± 1.1 kg/m3, a mass density (318.15 K, m1 = 0.0863) of 995.06 ± 1.1 kg/m3 and a mass density (318.15 K, m1 = 0.1032) of 995.96 ± 1.1 kg/m3.

Source: the NIST ThermoML archive (doi:10.1016/j.jct.2016.08.004)
